Reference: patent US9045524B2, “Selective caspase inhibitors and uses thereof” (NOVAGENESIS FOUNDATION, priority 2009, dated 2015)
Where two headings read alike, the source gives them in different places.

Key:
Caspase-1 = Caspase-1 (Homo sapiens (Human), UniProt P29466); test: Caspase-1 Inhibitor Drug Screening Kit, fluorometric (AFC liberation); assay type: biochemical; conditions: for IC50: 30-minute incubation at 37° C., approximations of the average values, read-out: Caspase enzymatic activity, IC50 (uM) Caspase 1
Sequence of Caspase-1 (P29466 120-404): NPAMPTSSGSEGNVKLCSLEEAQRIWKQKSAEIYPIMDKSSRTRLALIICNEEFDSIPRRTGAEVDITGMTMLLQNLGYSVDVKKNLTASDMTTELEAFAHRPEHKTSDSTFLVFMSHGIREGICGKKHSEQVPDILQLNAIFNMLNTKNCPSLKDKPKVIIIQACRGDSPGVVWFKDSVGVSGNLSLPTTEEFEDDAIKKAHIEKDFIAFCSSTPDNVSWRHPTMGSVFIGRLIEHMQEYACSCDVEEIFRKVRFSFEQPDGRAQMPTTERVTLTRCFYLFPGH
Method: (§1) The level of inhibition of caspase-1, -3, -5, -7, -9 activity was determined by comparison of the relative fluorescence intensity in samples with or without the compound.

EAE in C57BL/6 mice = test: Chronic EAE mouse model (MOG35-55 immunization), daily clinical score and body weight; assay type: in vivo; design: key to Delay in onset of the disease / Reduction in severity of the disease / Reduction in body weight loss: +++: high level improvement; ++: moderate improvement; +: small improvement; −: no improvement; conditions: for Delay in onset of the disease / Reduction in body weight loss / Reduction in severity of the disease: average overall effects on the EAE model, i.p.
Excerpt: The aim of this study was to verify the effectiveness of compounds in a chronic mouse animal model of EAE. EAE is a good proof-of-principle model of neurodegeneration since it encompasses degeneration or destruction of practically all the cells in the central nervous system, includes most major immunomodulatory components, and is able to maintain normal innate regenerative functions in the animal. This is a standard model (Antel J P et al., J Neurosci Res. 1997, 50: 345-353) used mainly to mimic the course evolution of Multiple Sclerosis (MS) in humans, and is commonly used for studying disease mechanisms and testing potential therapies. EAE is induced by immunization with myelin proteins, leading to development of myelin-specific T cells. These autoreactive T cells traffic into CNS parenchyma where they initiate an inflammatory cascade through recruitment of other cells such as monocytes and neutrophils. Accumulation of immune cells within CNS leads to myelin damage, axonal loss and clinical deficit in affected animals. EAE can be induced in a variety of species and strains of animals [mice, Rat, marmoset monkey, rhesus macaques] using various CNS antigens [Myelin Oligodendrocyte Glycoprotein (MOG), proteolipid protein (PLP) and myelin basic protein (MBP)]. Seven to 8 week old female C57BL/6 mice were purchased from Charles River Laboratories, and housed at MISPRO™ animal facility for one week before experimentation for adaptation to the new environment. All proper animal experimentation and ethics approvals were obtained prior to the start of any experiments. Mice were immunized subcutaneously with 100 μg of MOG35-55 (Sheldon Biotechnology Centre, McGill University) in CFA containing 5 mg/ml of desiccated (killed and dried) Mycobacterium tuberculosis H37Ra (Difco, Inc), at two sites on the back. The mice were then injected with 200 ng of pertussis toxin (List Biological Laboratories, Inc) in PBS intraperitoneally on days 0 and 2 using 25 gauge needles and scored daily using an EAE clinical scale as detailed below (Touil T et al., J Neurol Sci. 2008, 271:191-202; Antel J P et al., 1997, supra; Owens T et al., Curr Pharm Des. 2005, 1:1031-1037).
EAE was clinically assessed throughout the experiments by daily scoring using a scale from 0 to 5 as follows: partial limp tail, 0.5; full limp tail, 1; limp tail and waddling gait, 1.5; paralysis of one hind limb, 2; paralysis of one hind limb and partial paralysis of other hind limb, 2.5; paralysis of both hind limbs, 3; ascending paralysis, 3.5; paralysis of trunk, 4; moribund, 4.5; death, 5. In all the EAE models a body weight loss is always associated with the clinical signs. This body weight loss is associated with the loss of the function and the paralysis of the muscle (atrophy inducing loss of weight). For animals showing a clinical sign of 2 or more, the food and the water were presented inside the cage to facilitate eating and drinking.
At the onset of clinical signs of EAE, the mice were treated with 200 μl of Compound 51, 53, 57, 59, 101, 104, 105, 111 or 123 dissolved in 2.5% Dimethyl sulfoxide (DMSO) in PBS, while placebo groups were treated with 2.5% Dimethyl sulfoxide (DMSO) in PBS only, by intraperitoneal injection at different time of the clinical evolution.

Caspase-7 = Caspase-7 (Homo sapiens (Human), UniProt P55210); test: Caspase-7 Inhibitor Drug Screening Kit, fluorometric (AFC liberation); assay type: biochemical
Sequence of Caspase-7 (P55210 whole entry): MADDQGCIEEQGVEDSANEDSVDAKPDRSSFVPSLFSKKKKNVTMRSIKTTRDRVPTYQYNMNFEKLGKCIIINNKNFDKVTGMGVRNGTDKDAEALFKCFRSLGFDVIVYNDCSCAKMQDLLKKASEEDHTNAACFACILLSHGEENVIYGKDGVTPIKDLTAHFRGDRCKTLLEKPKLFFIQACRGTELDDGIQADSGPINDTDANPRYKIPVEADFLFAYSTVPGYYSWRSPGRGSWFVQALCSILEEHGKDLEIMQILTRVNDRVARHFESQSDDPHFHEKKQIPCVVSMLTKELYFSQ
Method: as §1

Glo3/7 = Glo3/7 assay; assay type: biochemical
Caspase-9 = Caspase-9 (Homo sapiens (Human), UniProt P55211); test: Caspase-9 Inhibitor Drug Screening Kit, fluorometric (AFC liberation); assay type: biochemical
Sequence of Caspase-9 (P55211 whole entry): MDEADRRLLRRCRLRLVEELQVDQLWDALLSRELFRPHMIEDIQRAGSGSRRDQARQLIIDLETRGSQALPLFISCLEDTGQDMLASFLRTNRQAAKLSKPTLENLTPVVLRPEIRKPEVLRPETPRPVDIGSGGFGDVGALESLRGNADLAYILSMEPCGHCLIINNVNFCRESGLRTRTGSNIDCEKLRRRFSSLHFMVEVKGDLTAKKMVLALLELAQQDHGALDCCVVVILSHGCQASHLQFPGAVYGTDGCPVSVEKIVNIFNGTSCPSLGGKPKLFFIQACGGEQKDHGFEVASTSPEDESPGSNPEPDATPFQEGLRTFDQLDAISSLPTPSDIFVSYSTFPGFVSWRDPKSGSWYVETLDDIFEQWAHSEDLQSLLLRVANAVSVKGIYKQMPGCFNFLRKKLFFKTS
Method: as §1

[1] = system: proteolytic cleavage of PARP (poly ADP-ribose polymerase) in Hela cells; test: Inhibition of staurosporine-induced PARP cleavage in live Hela cells; assay type: cell-based; conditions: for inhibition at 50 µM: Homo sapiens, HeLa
Method: To test the efficacy of caspase-3 inhibitors at the cellular level, the ability of selected compounds to inhibit the proteolytic cleavage of PARP (poly ADP-ribose polymerase) was evaluated in live Hela cells.
Briefly, in this assay Hela cells are seeded in 96 well plates and incubated for 4 hours with staurosporine, a well characterized inducer of apoptosis, alone or together with different concentrations of compound (50, 25, 10 and 3 uM). After formaldehyde-based fixation, the cells are stained with a fluorescein-labeled anti-cleaved PARP antibody (Cell signaling, Cat#: 9547) and counterstained with Hoechst33342 (Invitrogen, Cat#: H3570) to mark all nuclei. Fluorescence images are taken on a Cellomics™ microscope system (Thermo Scientific, Pittsburgh, USA) with the Hoechst stain in the blue channel and the cleaved PARP antibody stain in the green channel. The percentage of cleaved PARP positive cells is determined by calculating the ratio between nuclei with a cleaved PARP antibody staining above a certain threshold and all (Hoechst positive) nuclei. The efficacy of caspase-3 inhibition is determined by calculating the ratio between cleaved PARP positive cells after staurosporine incubation together with compounds and staurosporine incubation without compounds.

Caspase-5 = Caspase-5 (Homo sapiens (Human), UniProt P51878); test: Caspase-5 Inhibitor Drug Screening Kit, fluorometric (AFC liberation); assay type: biochemical; conditions: 30-minute incubation at 37° C.; approximations of the average values; read-out: Caspase enzymatic activity, IC50 (uM) Caspase 5
Sequence of Caspase-5 (P51878 137-434): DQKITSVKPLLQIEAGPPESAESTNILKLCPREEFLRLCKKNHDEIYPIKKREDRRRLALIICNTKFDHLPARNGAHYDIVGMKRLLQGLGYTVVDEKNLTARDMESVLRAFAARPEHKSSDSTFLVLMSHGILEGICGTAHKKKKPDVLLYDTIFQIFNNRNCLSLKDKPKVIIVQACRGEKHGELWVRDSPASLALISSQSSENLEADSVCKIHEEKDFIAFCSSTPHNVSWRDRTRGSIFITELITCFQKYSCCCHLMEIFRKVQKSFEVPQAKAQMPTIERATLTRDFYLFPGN
Method: as §1

Caspase-3 = Caspase-3 (Homo sapiens (Human), UniProt P42574); test: Caspase-3 Inhibitor Drug Screening Kit, fluorometric (AFC liberation); assay type: biochemical
Sequence of Caspase-3 (P42574 29-277): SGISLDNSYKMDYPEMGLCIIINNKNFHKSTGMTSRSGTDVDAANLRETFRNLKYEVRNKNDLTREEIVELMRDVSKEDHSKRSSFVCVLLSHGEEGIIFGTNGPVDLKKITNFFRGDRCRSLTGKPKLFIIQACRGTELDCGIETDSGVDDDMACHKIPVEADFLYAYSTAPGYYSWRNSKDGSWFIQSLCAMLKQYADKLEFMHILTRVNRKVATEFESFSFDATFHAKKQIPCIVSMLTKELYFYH
Method: as §1

[2] = FIG. 1, i.p. from day 10 to 16 post immunization, versus placebo
[3] = 30-minute incubation at 37° C., approximations of the average values, read-out: Caspase enzymatic activity, IC50 (uM) Caspase 7
[4] = 30-minute incubation at 37° C., approximations of the average values, read-out: Caspase enzymatic activity, IC50 (uM) Caspase 9
[5] = 4 h, read-out: % inhibition of PARP cleavage at 50 uM compound, Hela cells, staurosporine 4 hours, 50 uM compound
[6] = 30-minute incubation at 37° C., approximations of the average values, read-out: Caspase enzymatic activity, IC50 (uM) Caspase 3
[7] = FIG. 2, i.p. from day 10 to 16 post immunization, versus placebo

Structure (SMILES)	IC50 (Caspase-1) [µM]	Cumulative clinical score (EAE in C57BL/6 mice; [2])	Disease onset (EAE in C57BL/6 mice; [2])	Loss of body weight (EAE in C57BL/6 mice; [2])	clinical severity of the disease (EAE in C57BL/6 mice; [2])	maximal clinical score (EAE in C57BL/6 mice; [2])	Delay in onset of the disease (EAE in C57BL/6 mice)	Reduction in body weight loss (EAE in C57BL/6 mice)	Reduction in severity of the disease (EAE in C57BL/6 mice)	IC50 (Caspase-7; [3]) [µM]	IC50 (Glo3/7) [µM]	IC50 (Caspase-9; [4]) [µM]	inhibition at 50 µM [1, 5] [%]	IC50 (Caspase-5) [µM]	IC50 (Caspase-3; [6]) [µM]	IC50 (Caspase-7; read-out: IC50 caspase-7) [µM]	IC50 (Caspase-3; read-out: IC50 caspase-3) [µM]	further results
COC(=O)C[C@@H](/C=C/S(C)(=O)=O)NC(=O)[C@@H](NC(=O)[C@@H](NC(=O)[C@H](CC(=O)OC)NC(=O)OCc1ccccc1)C1Cc2ccccc2C1)C(C)C [Compound 51, Z-Asp(β-methyl)-Indanylglycine-Val-Asp(β-methyl)methyl vinyl sulfone]	> 3	significantly lower compared to placebo	delayed	less than the placebo	reduced significantly	significantly lower compared to placebo	++	+++	++	> 3	> 50	> 3	> 50	> 3	1			
CC(C)[C@H](NC(=O)[C@@H](NC(=O)[C@H](CC(=O)O)NC(=O)OCc1ccccc1)C1Cc2ccccc2C1)C(=O)N[C@H](/C=C/S(C)(=O)=O)CC(=O)O [Compound 57, Z-Asp-Indanylglycine-Val-Aspmethyl vinyl sulfone]	0.9	reduced the cumulative score	without delaying the onset of the disease	did not show and difference compared to placebo	reduced also the clinical severity of the disease	without any significant effect on the maximal score	+	+	+	0.2	0.1	> 3.33	> 50	> 3.33	0.03	0.18 to 0.3	0.03 to 0.09	fold less efficiency against caspase-1 than against group III caspases (Caspase-1): about 29 fold
CC(C)[C@H](NC(=O)[C@H](CCC(=O)O)NC(=O)[C@H](CC(=O)O)NC(=O)OCc1ccccc1)C(=O)N[C@H](/C=C/S(C)(=O)=O)CC(=O)O [Compound 59, Z-Asp-Glu-Val-Aspmethyl vinyl sulfone]	1.4						++	++	++	0.04	0.09	0.5		> 3.33	0.02	0.042	0.02	IC50 (Caspase-9; read-out: IC50 caspase-9): 0.509 µM; effectivity in inhibiting PARP cleavage ([1]; Hela cells, staurosporine): showing effectivity especially relative to DEVD-fmk
COC(=O)C[C@@H](/C=C/S(C)(=O)=O)NC(=O)[C@@H](NC(=O)[C@@H](NC(=O)[C@H](CC(=O)OC)NC(=O)OCc1ccccc1)c1ccccc1)C(C)C [Compound 101, Z-Asp(β-methyl)-phenylglycine-Val-Asp(β-methyl)methyl vinyl sulfone]	> 3.33						+	++	+	> 3.33	20	> 3.33	40	> 3.33	> 3.33			Disease onset (EAE in C57BL/6 mice; [7]): delayed; Loss of body weight (EAE in C57BL/6 mice; [7]): less than placebo; severity of the disease (EAE in C57BL/6 mice; [7]): reduced significantly at the early stage of the disease; Loss of body weight (EAE in C57BL/6 mice; FIG. 3, i.p. from day 14 to 19 post immunization, versus placebo): less than in the placebo group; inhibition at 50 µM ([1]; Hela cells, 50 uM, read-out: % of inhibition with compound relative to DEVDFMK): 45%
